Measured values published in patent US9376700B2, “Methods of modifying N-termini of a peptide or protein using transferases” (The Trustees of the University of Pennsylvania, priority 2012, dated 2016).
“And” between values parts separate entries of the source, which are not always exact repeats. Equal entries are not always repeated. Where two headings read alike, the source gives them in different places.

Tests used:
[1] = target: T1, E. coli aminoacyl transferase (AaT) (Escherichia coli, UniProt P0A8P1)
T1 sequence (P0A8P1 whole entry): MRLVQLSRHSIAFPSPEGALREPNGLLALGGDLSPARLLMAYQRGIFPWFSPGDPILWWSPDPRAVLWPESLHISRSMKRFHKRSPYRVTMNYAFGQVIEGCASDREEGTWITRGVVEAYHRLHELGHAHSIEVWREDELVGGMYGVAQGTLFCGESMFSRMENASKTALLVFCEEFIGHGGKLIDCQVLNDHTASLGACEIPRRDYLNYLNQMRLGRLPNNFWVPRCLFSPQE
Procedure: The LysAlaAcm ligation assay was used to analyze the kinetics of AaT with substrate 4a. The ligation assay was modified for ease of analysis as follows: The total reaction volume was scaled up to 590 μL and all reagents were maintained at the same concentrations as mentioned above, Five concentrations of 4a were monitored for a total reaction time of 30 min, with concentrations ranging from 0.05 to 1 mM.
Each 30 min kinetic experiment was done in triplicate with a total of fourteen 40 μL aliquots for all substrate concentrations.
Therefore, the reaction was characterized in terms of the Michaelis-Menten kinetic scheme in Equation 2.
To determine initial velocities, the primary kinetic data is fit to the hyperbolic Equation 3, which, though phenomenological, produces a high quality fit (R>0.99 for all 5 data sets). Data from the first two minutes were fit to a linear expression (Equation 4). A non-zero intercept is employed for improved quality of fit; this can be justified in terms of a rapid burst phase not captured in the 1 min resolution of this assay.
The initial velocities were then plotted as a function of Phe-A donor concentration and fit to Equation 5 to obtain kcat and KM values, where KM=(k−1+kcat)/k1 as depicted in FIG. 3B.
To characterize the enzymatic activity of AaT toward the present acyl adenosyl substrates, an HPLC assay was used to determine initial reaction rates to be fit to a standard Michaelis-Menten kinetic model.

[2] = target: T1, E. coli aminoacyl transferase (AaT); assay: LysAlaAcm ligation assay: AaT-catalyzed transfer from aminoacyl adenosine donor to LysAlaAcm, HPLC at 325 nm; assay type: biochemical; design: made in house; host or cells: E. coli BL21-Gold (DE3), plasmid pEG6, Ni-NTA purified; settings: for Transfer to LysAlaAcm by AaT (in words): reactions analyzed after 4 h; for Ligated Product Yield (%): 4 h
Procedure: Each ligation reaction, 125 μL total volume, contained the following reagents: aminoacyl adenosine donor (1 mM), recombinant His10-tagged E. coli aminoacyl transferase (2.26 μM), and LysAlaAcm (100 μM) in the AaT Ligation Buffer (50 mM HEPES pH 8.0, 150 mm KCl, 10 mM MgCl2). The reaction mixtures were incubated at 37° C. for four hours and quenched with 1% acetic acid. The proteins were extracted from the reactions via acetone precipitation. The reactions were precipitated using 4× reaction volume of acetone and cooled at −20° C. for 1 h. Next, the reactions were centrifuged at 13,200 rpm at 4° C. for 20 min to separate the reaction from precipitated protein. The supernatant was transferred to fresh 1.5 mL centrifuge tubes and allowed for acetone evaporation overnight at room temperature. After acetone evaporation, the supernatant was dried in a Speedvac (Savant, Thermo Scientific, Fisher Inc.) for 30 min to remove residual acetone. The resulting reaction volume was dissolved up to 1.2 mL using Milli-Q water and analyzed by HPLC (gradient below) to determine ligation yield by integration of separated peak intensities monitored at 325 nm. Collected HPLC fractions were characterized through MALDI MS analysis. […] Reactions using Phe-pdCpA as donor were carried out in an identical fashion (Ellman, et al., 1991, Methods Enzymol. 202:301-336).
All HPLC analyses of LysAlaAcm ligations were monitored on an Agilent HPLC using a Waters C18 column (Milford, Mass.).
All HPLC analyses of LysAlaAcm ligations were monitored as described elsewhere herein (Gradient 1).
(§1) The extent of transfer was evaluated by HPLC analysis of reactions with adenosyl donor, AaT or BpT, and an aminocoumarin-labeled reporter peptide (for AaT, LysAlaAcm was used as previously described by Tirrell and co-workers; for BpT, AspAlaAcm was used in an analogous fashion) (Connor et al., 2008, ChemBioChem 9:366-369). Monitoring LysAlaAcm or AspAlaAcm acylation in crude reaction mixtures using absorbance at 325 nm conveniently eliminates background due to other proteins and nucleic acids, although some non-natural amino acids such as naphthylalanine (Nap) and methoxycoumarinylalanine (Mcm) also absorb in this range.
To evaluate substrate scope, reactions were analyzed after 4 h, when transfer should be complete for the fully enzymatic reaction with Phe tRNA synthetase (Connor et al., 2008, ChemBioChem 9:366-369).

[3] = target: T2, E. coli aminoacyl tRNA transferase (AaT) (Escherichia coli, UniProt P0A8P1); assay: AaT-catalyzed α-casein N-terminal modification (Edman degradation, tryptic digest MALDI MS); assay type: biochemical; settings: Phe donor, additional dose at 4 h, overnight
T2 construct: made in house; host or cells: E. coli BL21-Gold (DE3), plasmid pEG6, Ni-NTA purified
T2 sequence (P0A8P1 whole entry): as above
Procedure: HEPES pH 8.0, 1.50 mM KO, 10 mM MgCl2) and AaT (0.05 mg). The reaction mixture was incubated at 37° C. for 12 h, AaT was removed using Ni^2+ resin (Ni-NTA Superflow, Qiagen), and then buffer exchanged four times into phosphate buffered saline (PBS, 12 mM NaH2PO4, 50 mM NaCl, 4.7 mM KCl, pH 8.0) by Spectra/Por 1 dialysis tubing (Spectrum Laboratories; Rancho Dominguez, Calif.). Azf-modified α-casein was used directly after buffer exchange into PBS. Aliquots (1 nmol) of α-casein were diluted into PBS (22 μL) containing either fluorescein-alkyne (FlAlk, 91 μM) or propargylamine (Alk, 227 μM) for copper-catalyzed azide-alkyne cycloaddition (CuAAC). […] Reactions were boiled with gel loading dye LDS (Pierce; Rockford, Ill.) for 10 min at 95° C. and analyzed by SDS-PAGE. Fluorescence images were obtained with a Geldoc (BioRAD; Hercules, Calif.) using an excitation wavelength of 302 nm for detection of fluorescein. α-Casein was also directly visualized by Coomassie Brilliant Blue staining.
α-Casein-Azf (33 or α-casein (33 μg) was digested with sequencing grade modified Trypsin (0.6 μg) in 27 μL of 25 mM ammonium bicarbonate pH 7.5 (freshly prepared). Digestions were carried out at 37° C. for 14 h. Trypsin digest aliquots (1 μL) were combined with α-cyano-4-hydroxycinnamic acid (1 μL of a saturated solution in 1:1 H2O/CH3CN with 1% TFA) and analyzed by MALDI MS. […]

[4] = HPLC analysis of donor hydrolysis in mock LysAlaAcm reactions without enzyme; assay type: physicochemical; settings: mock reaction without AaT, AaT Ligation Buffer pH 8.0, 37° C., after 4 h
Procedure: The amino acid analog donor (4a-4z) was suspected to be hydrolytically unstable and was tested in mock LysAlaAcm reactions without enzyme present and then analyzed by HPLC. The mock LysAlaAcm reactions were performed as described in the LysAlaAcm Ligation Assay section; however, the AaT solution was replaced with water. Phe-A solutions were analyzed at 30 min, 1 h, and 4 h. Immediately following the reaction, the sample was diluted to 1,200 μL and injected onto the C18 HPLC column using Gradient 1. […] Additionally, 1 mM A and 1 mM Phe were injected on the HPLC to serve as standards to verify retention times. Note that the relative concentrations of 2′ and 3′ Phe-A would be different in an actual reaction where the 3′ Phe-A is preferentially consumed by AaT in the transfer reaction (Watanabe et al., 2007, Nature 449:867-871). The change in 2′:3′ ratio between 0 h and 30 min probably reflected the higher pH of the 30 min data (Taiji et al., 1983, Biochemistry 22:3220-3225).

V. vulnificus BpT = assay: AspAlaAcm ligation assay: BpT-catalyzed transfer from adenosyl donor to AspAlaAcm; assay type: biochemical; settings: single addition of donor, 100 μM AspAlaAcm, 2.26 μM BpT, standard BpT-catalyzed transfer conditions
Procedure: Ligation test reactions with V. vulnificus Bpt were conducted in a manner identical to the AaT LysAlaAcm ligation assay with the following exceptions, 2.26 μM BpT was used rather than 2.26 μM AaT, 100 μM AspAlaAcm was used rather than 100 μM LysAlaAcm, and BpT Ligation Buffer (50 mM HEPES, pH 8, 150 mM KO, 10 mM MgCl2) was used rather than AaT Ligation Buffer.
as §1

[5] = target: T1, E. coli aminoacyl transferase (AaT); assay: A/AMP/ATP/pdCpA inhibition studies of ligation with Phe donor 4a; assay type: biochemical; design: made in house; host or cells: E. coli BL21-Gold (DE3), plasmid pEG6, Ni-NTA purified; settings: tested at 1 mM, 2.5 mM and 5 mM with Phe donor 4a
Procedure: Each ligation reaction was performed as described elsewhere herein.
To better understand limitations on the yield from AaT reactions, the possibilities of inhibition by hydrolyzed substrate or aminoacylated product were assessed. Since the acyl adenosine donor substrate is not regenerated during the reaction (unlike the aaRS/tRNA/AaT reaction), it was hypothesized that the adenosine byproduct might inhibit further acylation by binding to AaT. To investigate this possibility, adenosine was added to the reaction at varying concentrations and monitored the reaction timecourse by fluorescence spectroscopy and by HPLC.

[6] = 100 μM LysAlaAcm, 0.05 to 1 mM donor
[7] = single addition of 1 mM donor, 100 μM LysAlaAcm, 2.26 μM AaT, 37° C., no additive

For Nc1ncnc2c1ncn2[C@@H]1O[C@H](CO)[C@@H](O)[C@H]1OC(=O)[C@@H](N)Cc1ccccc1 [4a, (S)-(2R,3R,4R,5R)-2-(6-Amino-9H-purin-9-yl)-4-hydroxy-5-(hydroxymethyl)tetrahydrofuran-3-2-amino-3-phenylpropanoate], the Km [1, 6] was 124 µM, the kcat [1, 6] was 1.68±0.09×10^−1 s^−1 and the Km ([1]; restated in μM) was 124 µM. The “Transfer to LysAlaAcm by AaT (in words)” value [2] was “transferred efficiently”, the “Conversion of LysAlaAcm after a second addition of donor” value ([2]; second addition of 1 mM 4a) was “completion” and the “Ligated Product Yield (%)” value [2, 7] was 92% and 92.7 ± 5.2%. For the same compound, the “Ligated Product Yield (%)” value ([2]; single addition of donor, additive 1 mM pdCpA) was 90.4 ± 0.9%, the “Modification of α-casein N-terminus, Edman degradation” value [3] was “quantitative addition of Phe” and the Donor hydrolysis [4] was “completely hydrolyzed”.

For CC(C)C[C@H](N)C(=O)O[C@@H]1[C@H](O)[C@@H](CO)O[C@H]1n1cnc2c(N)ncnc21 [4b, (S)-(2R,3R,4R,5R)-2-(6-amino-9H-purin-9-yl)-4-hydroxy-5-(hydroxymethyl)tetrahydrofuran-3-yl 2-amino-4-methylpentanoate], the “Ligated Product Yield (%)” value (V. vulnificus BpT) was 5%, the “Transfer to LysAlaAcm by AaT (in words)” value [2] was “transferred efficiently” and the “Ligated Product Yield (%)” value [2, 7] was 80.4 ± 0.9%.

In the case of CC(C)SSC[C@H](N)C(=O)O[C@@H]1[C@H](O)[C@@H](CO)O[C@H]1n1cnc2c(N)ncnc21 [4l, (R)-(2R,3R,4R,5R)-2-(6-amino-9H-purin-9-yl)-4-hydroxy-5-(hydroxymethyl)tetrahydrofuran-3-yl 2-amino-3-(isopropyldisulfanyl)propanoate], the “Ligated Product Yield (%)” value (V. vulnificus BpT) is reported as 20% and the “Ligated Product Yield (%)” value [2, 7] is reported as 42.3%.

With Nc1ncnc2c1ncn2[C@@H]1O[C@H](COP(=O)(O)OP(=O)(O)OP(=O)(O)O)[C@@H](O)[C@H]1O [ATP, adenosine triphosphate] the “Inhibition of the reaction, comparison of adenosine compounds” value [5] was “inhibited the reaction”.
